Results from ChEMBL document CHEMBL1152465, “Comparative evaluation of the inhibitory activities of a series of pyrimidinedione congeners that inhibit human immunodeficiency virus types 1 and 2” (Antimicrob Agents Chemother, 2008).
The source made the active and inactive calls.

Key:
[1] = target: Human immunodeficiency virus type 1 reverse transcriptase (Human immunodeficiency virus 1, UniProt Q72547); assay: Inhibition of wild type HIV1 reverse transcriptase assessed as 32P-labeled GMP incorporation into nascent DNA strand
[2] = test system: Human immunodeficiency virus 2; assay: Antiviral activity against HIV2 assessed as inhibition of viral single round replication at early time point; format: functional, organism-based
[3] = test system: Human immunodeficiency virus 1; assay: Antiviral activity against HIV1 infected in human HeLa cells expressing CD4-LTR assessed as inhibition of viral entry-related beta galactosidase expression treated for 2 hrs followed by drug wash out measured after 48 hrs by MAGI assay; format: functional, organism-based; settings: Human immunodeficiency virus 1, HeLa
[4] = test system: Human immunodeficiency virus 2; assay: Inhibition of HIV2 reverse transcriptase assessed as 32P-labeled GMP incorporation into nascent DNA strand at highest concentration
[5] = test system: Human immunodeficiency virus 2; assay: Antiviral activity against HIV2 ROD infected in human CEM-SS cells assessed as inhibition of virus-induced cytopathic effect by XTT assay; format: functional, organism-based, ISOLATE ROD
[6] = Therapeutic index, ratio of TC50 for human CEM-SS cells to EC50 for HIV1 RF infected in human CEM-SS cells; format: cell-based; settings: read-out: TI
[7] = Cytotoxicity against human CEM-SS cells by XTT assay; format: cell-based; settings: read-out: TC50 (the source's name)
[8] = Therapeutic index, ratio of TC50 human HeLa cells expressing CD4-LTR to EC50 for HIV1 entry inhibition in human HeLa cells expressing CD4-LTR; format: cell-based; settings: read-out: TI
[9] = test system: Human immunodeficiency virus 1; assay: Antiviral activity against HIV1 RF infected in human CEM-SS cells assessed as inhibition of virus-induced cytopathic effect by XTT assay; format: functional, organism-based; settings: Human immunodeficiency virus 1, RF
[10] = test system: Human immunodeficiency virus 1; assay: Antiviral activity against HIV1 infected in human CEM-SS cells assessed as inhibition of viral replication and virus-induced cytopathic effect by dose-response curve analysis; format: functional; settings: Human immunodeficiency virus 1, CEM-SS
[11] = test system: Human immunodeficiency virus 2; assay: Inhibition of HIV2 reverse transcriptase
[12] = Cytotoxicity against human HeLa cells expressing CD4-LTR by XTT assay; format: cell-based; settings: read-out: TC50 (the source's name)
[13] = target: Human immunodeficiency virus type 1 reverse transcriptase (Human immunodeficiency virus 1, UniProt Q72547, K103N); assay: Inhibition of HIV1 reverse transcriptase K103N mutant assessed as 32P-labeled GMP incorporation into nascent DNA strand
[14] = test system: Human immunodeficiency virus 2; assay: Antiviral activity against HIV2 assessed as inhibition of viral replication treated at time points after viral entry into host cells; format: functional, organism-based
[15] = Therapeutic index, ratio of TC50 for human CEM-SS cells to EC50 for HIV2 ROD infected in human CEM-SS cells; format: cell-based; settings: for selectivity ratio: CEM-SS cells, read-out: TI; for TI: cem-ss
[16] = Human immunodeficiency virus 2, ISOLATE ROD, CEM-SS, read-out: EC50

Compound	IC50 [1]	Activity [2]	EC50 [3]	Activity [4]	EC50 [5, 16]	selectivity ratio [6]	CC50 [7]	selectivity ratio [8]	EC50 [9]	EC99 [10]	Activity [11]	CC50 [12]	IC50 [13]	Activity [14]	selectivity ratio [15]	EC50 ([5]; cem-ss)	TI [15]
Cc1cc(C)cc(Sc2c(C(C)C)c(=O)[nH]c(=O)n2CCC2CC=CC2)c1	0.254 µM	Active	0.08 µM	inactive	6.2 µM	6530	12.8 µM	173	0.002 µM	1 µM	inactive	14.2 µM	149 µM	inactive	2.5	–	–
Cc1cc(C)cc(Oc2c(C(C)C)c(=O)[nH]c(=O)n2CCC2CC=CC2)c1	0.176 µM	Active	2.24 µM	inactive	1.4 µM	918	10.3 µM	6	0.02 µM	1 µM	inactive	14.2 µM	2.3 µM	inactive	7.3	–	–
Cc1cc(C)cc(Oc2c(C(C)C)c(=O)[nH]c(=O)n2CC2CCCC2)c1	0.157 µM	Active	0.87 µM	inactive	1.3 µM	1050	11.8 µM	18	0.019 µM	1 µM	inactive	15.5 µM	1.14 µM	inactive	8.8	–	–
CCc1c(C(=O)c2cc(C)cc(C)c2)n(CCC2CCCC2)c(=O)[nH]c1=O	0.119 µM	Active	0.02 µM	inactive	–	2580	25.8 µM	1230	0.01 µM	1 µM	inactive	22.2 µM	> 271 µM	inactive	–	Not Active	Not Active
Cc1cc(C)cc(C(=O)c2c(C(C)C)c(=O)[nH]c(=O)n2CCC2C=CCC2)c1 (stereo not given)	0.023 µM	Active	0.05 µM	inactive	0.2 µM	8940	13.7 µM	341	0.0026 µM	1 µM	inactive	18.3 µM	5.5 µM	inactive	65	–	–
Cc1cc(C)cc(Oc2c(C(C)C)c(=O)[nH]c(=O)n2CCC2CCCC2)c1	0.234 µM	Active	0.02 µM	inactive	–	145	7.8 µM	675	0.05 µM	1 µM	inactive	12.7 µM	16.2 µM	inactive	–	Not Active	Not Active
Cc1cc(C)cc(Sc2c(C(C)C)c(=O)[nH]c(=O)n2CCC2CCCC2)c1	0.233 µM	Active	1.28 µM	inactive	–	92	14.2 µM	12	0.15 µM	1 µM	inactive	15.4 µM	205 µM	inactive	–	Not Active	Not Active
Cc1cc(C)cc(Sc2c(C(C)C)c(=O)[nH]c(=O)n2CC2CC2)c1	0.003 µM	Active	0.009 µM	inactive	0.5 µM	37600	7.8 µM	1180	0.0003 µM	1 µM	inactive	10.3 µM	1.47 µM	inactive	16.9	–	–
